Measurements published in ChEMBL document CHEMBL3259776, “Discovery and optimization of indazoles as potent and selective interleukin-2 inducible T cell kinase (ITK) inhibitors” (Bioorg Med Chem Lett, 2014).

Columns and labels:
[1] = Oral bioavailability in rat at 5 mg/kg; assay type: ADME, organism-based; settings: in vivo
[2] = Lipophilicity, log D of the compound at pH 7.4; settings: buffer
[3] = Clearance in rat at 1 mg/kg, iv; assay type: ADME, organism-based; parameters: dose 1 mg/kg, route intravenous; settings: in vivo
[4] = Half life in rat at 1 mg/kg, iv; assay type: ADME, organism-based; parameters: dose 1 mg/kg, route intravenous; settings: in vivo
[5] = AUC in rat at 1 mg/kg, iv; assay type: ADME, organism-based; parameters: dose 1 mg/kg, route intravenous; settings: plasma
[6] = Half life in rat at 5 mg/kg, po; assay type: ADME, organism-based; parameters: dose 5 mg/kg, route oral; settings: in vivo
[7] = target: T1, Tyrosine-protein kinase ITK/TSK (Homo sapiens, UniProt Q08881)
T1 sequence (Q08881 whole entry): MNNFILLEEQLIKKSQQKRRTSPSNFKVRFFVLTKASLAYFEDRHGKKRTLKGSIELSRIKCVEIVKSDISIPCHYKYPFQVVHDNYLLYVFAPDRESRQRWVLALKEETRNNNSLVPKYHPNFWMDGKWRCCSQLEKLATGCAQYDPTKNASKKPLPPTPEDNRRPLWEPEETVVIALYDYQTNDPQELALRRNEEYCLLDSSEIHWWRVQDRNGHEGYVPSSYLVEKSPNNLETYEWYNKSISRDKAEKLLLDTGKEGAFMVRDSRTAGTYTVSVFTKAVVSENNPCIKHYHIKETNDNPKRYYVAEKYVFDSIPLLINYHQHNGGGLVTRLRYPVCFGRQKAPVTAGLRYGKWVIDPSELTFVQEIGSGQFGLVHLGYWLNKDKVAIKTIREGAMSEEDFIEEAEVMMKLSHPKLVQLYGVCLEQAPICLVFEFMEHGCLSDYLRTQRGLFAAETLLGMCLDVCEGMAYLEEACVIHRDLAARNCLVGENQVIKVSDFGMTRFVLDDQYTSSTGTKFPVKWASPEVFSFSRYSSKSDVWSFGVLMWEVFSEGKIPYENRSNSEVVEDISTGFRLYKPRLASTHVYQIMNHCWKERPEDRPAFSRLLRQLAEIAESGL

Compound | bioavailability [1] [%] | logD [2] | clearance [3] [L/h/kg] | half-life [4] [h] | AUC [5] [nM·h] | half-life [6] [h] | Ki [7] [nM]
CC(C)(O)[C@@H](c1ccccc1)n1cc(NC(=O)c2n[nH]c3cc(-c4cn[nH]c4)ccc23)cn1 | 9 | 3.4 | 0.66 | 1.8 | 2500 | 2.6 | –
CN(C)CC[C@@H](c1ccccc1)n1cc(NC(=O)c2n[nH]c3cc(-c4cn[nH]c4)ccc23)cn1 | 0 | – | 2.64 | 5.7 | 837 | – | –
O=C(Nc1ncc(Cc2ccccc2)s1)c1n[nH]c2ccccc12 | – | – | – | – | – | – | > 4
O=C(Nc1ncc(Cc2ccccc2)o1)c1n[nH]c2ccccc12 | – | – | – | – | – | – | > 4
